Laboratory results reported in ChEMBL document CHEMBL3734705, “Synthesis and in vitro cytotoxicity of novel C-12 substituted-14-deoxy-andrographolide derivatives as potent anti-cancer agents” (2015).

Experiments:
Format in all cases: functional
[1] = tested on: NCI-H23; assay: Cytotoxicity against human NCI-H23 cells after 48 hrs by SRB assay; conditions: NCI-H23, 48 h
[2] = Cytotoxicity against human BT549 cells after 48 hrs by SRB assay; conditions: BT-549, 48 h
[3] = tested on: SK-MEL-28; assay: Cytotoxicity against human SK-MEL-28 cells after 48 hrs by SRB assay; conditions: SK-MEL-28, 48 h
[4] = tested on: EKVX; assay: Cytotoxicity against human EKVX cells after 48 hrs by SRB assay
[5] = Cytotoxicity against human SKOV3 cells after 48 hrs by SRB assay; conditions: SK-OV-3, 48 h
[6] = tested on: SK-MEL-2; assay: Cytotoxicity against human SK-MEL-2 cells after 48 hrs by SRB assay; conditions: SK-MEL-2, 48 h
[7] = Cytotoxicity against human HOP62 cells after 48 hrs by SRB assay; conditions: HOP-62, 48 h
[8] = Cytotoxicity against human Hs578T cells after 48 hrs by SRB assay; conditions: Hs-578T
[9] = Cytotoxicity against human HCT15 cells after 48 hrs by SRB assay; conditions: HCT-15, 48 h
[10] = tested on: 786-0; assay: Cytotoxicity against human 786-0 cells after 48 hrs by SRB assay; conditions: 786-0, 48 h
[11] = Cytotoxicity against human RXF393 cells after 48 hrs by SRB assay; conditions: RXF 393, 48 h
[12] = tested on: T47D; assay: Cytotoxicity against human T47D cells after 48 hrs by SRB assay
[13] = tested on: NCI-H522; assay: Cytotoxicity against human NCI-H522 cells after 48 hrs by SRB assay; conditions: NCI-H522, 48 h
[14] = Cytotoxicity against human OVCAR3 cells after 48 hrs by SRB assay; conditions: OVCAR-3, 48 h
[15] = Cytotoxicity against human HCT116 cells after 48 hrs by SRB assay; conditions: HCT-116, 48 h
[16] = Cytotoxicity against human OVCAR8 cells after 48 hrs by SRB assay; conditions: OVCAR-8, 48 h
[17] = tested on: SK-MEL-2; assay: Cytotoxicity against human SK-MEL-2 cells assessed as growth level at 10 uM after 48 hrs by SRB assay
[18] = Cytotoxicity against human COLO205 cells after 48 hrs by SRB assay; conditions: COLO 205, 48 h
[19] = Cytotoxicity against human Caki1 cells after 48 hrs by SRB assay; conditions: CAKI-1, 48 h
[20] = tested on: MDA-MB-435; assay: Cytotoxicity against human MDA-MB-435 cells after 48 hrs by SRB assay; conditions: MDA-MB-435, 48 h
[21] = Cytotoxicity against human IGROV1 cells after 48 hrs by SRB assay; conditions: IGROV-1, 48 h
[22] = Cytotoxicity against human UACC257 cells after 48 hrs by SRB assay; conditions: UACC-257, 48 h
[23] = Cytotoxicity against human HL-60(TB) cells after 48 hrs by SRB assay; conditions: HL-60, 48 h
[24] = tested on: A549; assay: Cytotoxicity against human A549 cells after 48 hrs by SRB assay; conditions: A549, 48 h
[25] = Cytotoxicity against human MOLT4 cells after 48 hrs by SRB assay; conditions: MOLT-4, 48 h
[26] = tested on: CCRF-CEM; assay: Cytotoxicity against human CCRF-CEM cells after 48 hrs by SRB assay
[27] = Cytotoxicity against human TK10 cells after 48 hrs by SRB assay; conditions: TK-10, 48 h
[28] = Cytotoxicity against human OVCAR5 cells after 48 hrs by SRB assay; conditions: OVCAR-5, 48 h
[29] = Cytotoxicity against human PC3 cells after 48 hrs by SRB assay; conditions: PC-3, 48 h
[30] = Cytotoxicity against human SW620 cells after 48 hrs by SRB assay; conditions: SW-620, 48 h
[31] = tested on: NCI-H322M; assay: Cytotoxicity against human NCI-H322M cells after 48 hrs by SRB assay
[32] = tested on: MDA-MB-231; assay: Cytotoxicity against human MDA-MB-231 cells after 48 hrs by SRB assay; conditions: MDA-MB-231, 48 h
[33] = tested on: KM12; assay: Cytotoxicity against human KM12 cells after 48 hrs by SRB assay; conditions: KM12, 48 h
[34] = Cytotoxicity against human OVCAR4 cells after 48 hrs by SRB assay; conditions: OVCAR-4, 48 h
[35] = tested on: SR; assay: Cytotoxicity against human SR cells after 48 hrs by SRB assay
[36] = read-out: LC50 (the source's name)

Question: With `C=C1CC[C@@H]2[C@](C)(COC(C)=O)[C@H](OC(C)=O)CC[C@@]2(C)[C@@H]1CC(Sc1ccccc1)C1=CCOC1=O` (mixture of isomers) as the molecule, how does the GI50 [1] read?
Answer: 1.78 µM

Question: And the LC50 [1]?
Answer: 7.57 µM

Question: What about the TGI [1] of the same molecule?
Answer: 3.67 µM

Question: What about the GI50 [2] of the same molecule?
Answer: 1.59 µM

Question: And the TGI [2]?
Answer: 3.99 µM

Question: What about the CC50 [2, 36] of the same molecule?
Answer: > 100 µM

Question: What about the GI50 [3] of the same molecule?
Answer: 1.62 µM

Question: What about the LC50 (lethal concentration 50%) [3] of the same molecule?
Answer: 6.68 µM

Question: And the TGI [3]?
Answer: 3.29 µM

Question: What about the GI50 [4] of the same molecule?
Answer: 2.43 µM

Question: What about the LC50 [4] of the same molecule?
Answer: > 100 µM

Question: And the TGI [4]?
Answer: 10.4 µM

Question: What about the GI50 [5] of the same molecule?
Answer: 4.44 µM

Question: And the TGI [5]?
Answer: 16.8 µM

Question: And the CC50 [5, 36]?
Answer: > 100 µM

Question: And the GI50 [6]?
Answer: 2.25 µM

Question: And the LC50 (concentration causing 50% net cell kill) [6]?
Answer: 9.36 µM

Question: And the TGI [6]?
Answer: 4.59 µM

Question: What about the GI50 [7] of the same molecule?
Answer: 2.89 µM

Question: And the LC50 [7]?
Answer: 14.7 µM

Question: And the TGI [7]?
Answer: 5.53 µM

Question: And the GI50 [8]?
Answer: 4.89 µM

Question: What about the LC50 (concentration killing 50% of cells) [8] of the same molecule?
Answer: > 100 µM

Question: What about the TGI [8] of the same molecule?
Answer: 63.3 µM

Question: What about the GI50 [9] of the same molecule?
Answer: 0.87 µM

Question: What about the LC50 [9] of the same molecule?
Answer: 6.98 µM

Question: And the TGI [9]?
Answer: 2.59 µM

Question: And the GI50 [10]?
Answer: 1.9 µM

Question: What about the LC50 [10] of the same molecule?
Answer: 6.96 µM

Question: What about the TGI [10] of the same molecule?
Answer: 3.64 µM

Question: What about the GI50 [11] of the same molecule?
Answer: 1.62 µM

Question: What about the LC50 (concentration causing 50% net cell kill) [11] of the same molecule?
Answer: 6.01 µM

Question: What about the TGI [11] of the same molecule?
Answer: 3.12 µM

Question: What about the GI50 [12] of the same molecule?
Answer: 2.01 µM

Question: What about the LC50 (concentration killing 50% of cells) [12] of the same molecule?
Answer: > 100 µM

Question: And the TGI [12]?
Answer: 8.32 µM

Question: And the GI50 [13]?
Answer: 1.35 µM

Question: And the LC50 [13]?
Answer: 6.57 µM

Question: What about the TGI [13] of the same molecule?
Answer: 2.98 µM

Question: And the GI50 [14]?
Answer: 1.14 µM

Question: What about the LC50 (concentration killing 50% of cells) [14] of the same molecule?
Answer: 4.92 µM

Question: What about the TGI [14] of the same molecule?
Answer: 2.37 µM

Question: And the GI50 [15]?
Answer: 0.85 µM

Question: And the LC50 (concentration killing 50% of cells) [15]?
Answer: 5.03 µM

Question: What about the TGI [15] of the same molecule?
Answer: 2.18 µM

Question: What about the GI50 [16] of the same molecule?
Answer: 1.46 µM

Question: And the LC50 [16]?
Answer: 70 µM

Question: And the TGI [16]?
Answer: 4.7 µM

Question: And the Activity [17]?
Answer: -1.66%

Question: And the GI50 [18]?
Answer: 1.49 µM

Question: What about the LC50 [18] of the same molecule?
Answer: > 100 µM

Question: And the TGI [18]?
Answer: 3.98 µM

Question: And the GI50 [19]?
Answer: 2.77 µM

Question: And the LC50 [19]?
Answer: > 100 µM

Question: What about the TGI [19] of the same molecule?
Answer: 11.5 µM

Question: And the GI50 [20]?
Answer: 1.41 µM

Question: And the LC50 (50% lethal concentration) [20]?
Answer: 9.09 µM

Question: What about the TGI [20] of the same molecule?
Answer: 3.58 µM

Question: What about the GI50 [21] of the same molecule?
Answer: 1.87 µM

Question: And the TGI [21]?
Answer: 4.28 µM

Question: And the GI50 [22]?
Answer: 1.91 µM

Question: And the LC50 (concentration killing 50% of cells) [22]?
Answer: 7.2 µM

Question: And the TGI [22]?
Answer: 3.71 µM

Question: And the GI50 [23]?
Answer: 0.49 µM

Question: What about the TGI [23] of the same molecule?
Answer: 2.27 µM

Question: And the CC50 [23, 36]?
Answer: 9.76 µM

Question: What about the GI50 [24] of the same molecule?
Answer: 2.73 µM

Question: And the LC50 [24]?
Answer: > 100 µM

Question: And the TGI [24]?
Answer: 7.77 µM

Question: And the GI50 [25]?
Answer: 1.48 µM

Question: What about the LC50 [25] of the same molecule?
Answer: > 100 µM

Question: And the TGI [25]?
Answer: 6.15 µM

Question: And the GI50 [26]?
Answer: 0.26 µM

Question: What about the TGI [26] of the same molecule?
Answer: 1.19 µM

Question: And the CC50 [26, 36]?
Answer: > 100 µM

Question: What about the GI50 [27] of the same molecule?
Answer: 2.83 µM

Question: And the LC50 [27]?
Answer: 13.4 µM

Question: What about the TGI [27] of the same molecule?
Answer: 5.54 µM

Question: What about the GI50 [28] of the same molecule?
Answer: 2.46 µM

Question: What about the LC50 (concentration causing 50% net cell kill) [28] of the same molecule?
Answer: 8.89 µM

Question: What about the TGI [28] of the same molecule?
Answer: 4.67 µM

Question: What about the GI50 [29] of the same molecule?
Answer: 1.84 µM

Question: And the LC50 [29]?
Answer: > 100 µM

Question: And the TGI [29]?
Answer: 10.1 µM

Question: And the GI50 [30]?
Answer: 0.71 µM

Question: What about the LC50 [30] of the same molecule?
Answer: > 100 µM

Question: And the TGI [30]?
Answer: 3.64 µM

Question: And the GI50 [31]?
Answer: 2.93 µM

Question: And the LC50 [31]?
Answer: > 100 µM

Question: And the TGI [31]?
Answer: 10.4 µM

Question: What about the GI50 [32] of the same molecule?
Answer: 2.47 µM

Question: What about the LC50 [32] of the same molecule?
Answer: > 100 µM

Question: What about the TGI [32] of the same molecule?
Answer: 6.29 µM

Question: And the GI50 [33]?
Answer: 1.4 µM

Question: And the LC50 [33]?
Answer: 6.25 µM

Question: And the TGI [33]?
Answer: 2.96 µM

Question: And the GI50 [34]?
Answer: 1.36 µM

Question: What about the TGI [34] of the same molecule?
Answer: 3.11 µM

Question: And the CC50 [34, 36]?
Answer: 7.12 µM

Question: And the GI50 [35]?
Answer: 0.55 µM

Question: And the TGI [35]?
Answer: 3.66 µM

Question: What about the CC50 [35, 36] of the same molecule?
Answer: > 100 µM
